Ends that are not written are not given here.
Key:
trypsin = conditions: incubation with trypsin enzyme (enzymes present in the gastrointestinal tract), in vitro
Procedure: FIG. 11—Representation of the fragments obtained at the different incubation times with the enzyme trypsin. Analysis performed by mass spectrometry, MALDI. The first spectrum, marked with the letter A, refers to the time of 15 minutes; the second spectrum marked with the letter B indicates the time of 30 minutes; C indicates the time of 2 hour2; D indicates the time of 4 hours; and, finally, E is the control peptide (SEQ ID NO: 6).
FIG. 12—Representation of the fragments obtained at the different incubation times with the enzyme trypsin. Analysis performed by mass spectrometry, MALDI.
By means of this experiment it was possible to try to observe the in vitro peptide digestion by the enzyme present in the organism.

Swiss mice [1] = experiment: Hot Plate nociception test in mice; assay type: in vivo, Mus musculus; conditions: i.p. in mice, dose based on dose and molarity of morphine 10 mg/kg (Leu-enkephalin 19.3 mg/kg), followed 120-240 min
Procedure: (§1) In vivo analyzes: Tests were carried out on Swiss mice of the Mus musculus species, in which nociception tests (Hot Plate and Tail Flick) were used according to Le Bars et al. (2001). Injections were administered via intraperitoneal (IP). Doses were based upon dose and molaridade of the morphine (10 mg/kg animal).
To initiate the nociceptive tests and verify the efficiency of the same, a pilot experiment was carried out using the peptide sequence SEQ ID NO: 2 and evaluating the behavior of the animals in the course of two hours.

Swiss mice [2] = experiment: Tail Flick nociception test in mice; assay type: in vivo, Mus musculus; conditions: i.p. in mice, 240 min
Procedure: as §1

immobilized pepsin = immobilized pepsin (Homo sapiens, UniProt P0DJD8); conditions: 4 hours, 37° C., 1400 RPM
Chain of immobilized pepsin (P0DJD8 63-388): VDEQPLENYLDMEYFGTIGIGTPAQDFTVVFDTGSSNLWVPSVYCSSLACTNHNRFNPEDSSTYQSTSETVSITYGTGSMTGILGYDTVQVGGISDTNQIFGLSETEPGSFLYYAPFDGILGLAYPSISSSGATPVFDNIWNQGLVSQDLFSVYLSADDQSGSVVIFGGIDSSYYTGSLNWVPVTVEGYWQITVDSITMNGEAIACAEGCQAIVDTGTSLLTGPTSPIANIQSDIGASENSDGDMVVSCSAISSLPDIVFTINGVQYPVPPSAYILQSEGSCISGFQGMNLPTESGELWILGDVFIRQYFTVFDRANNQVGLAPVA
Procedure: Digestion of the immobilized pepsin precursor: the peptide sequence SEQ ID NO: 6 was digested using immobilized pepsin for a period of 4 hours at 37° C. under agitation of 1400 RPM evaluating the fragmentation index at the times of 15 minutes, 30 minutes, 2 hours and 4 hours.
The peptide sequence SEQ ID NO: 6 was digested using immobilized pepsin for a period of 4 hours, evaluating the fragmentation index at the times of 15 minutes, 30 minutes, 2 hours and 4 hours.
Enkephalin (Leu) was digested using immobilized pepsin for a period of 4 hours, evaluating the fragmentation index at the times of 30 minutes, 1 hour, 2 hours and 4 hours.

Compound	intensity of the major peak during incubation (trypsin)	antinociceptive (opioid) activity, latency index (Swiss mice [1])	antinociceptive activity, latency index (Swiss mice [2])	fragmentation index (precursor ion and lower mass ions over time) (immobilized pepsin)
CC(C)C[C@H](NC(=O)[C@H](Cc1ccccc1)NC(=O)CNC(=O)CNC(=O)[C@@H](N)Cc1ccc(O)cc1)C(=O)O [Leu-enkephalin, reference compound]	reducing	–	–	–
SEQ ID NO: 2: synthetic opioid peptide of the formula TyrGlyGly-X1-X2-X3-X4; sequence not printed in the text (YGGTGAH)	–	delayed and prolonged activity	–	–
SEQ ID NO: 3: synthetic opioid peptide of the formula TyrGlyGly-X1-X2-X3-X4; sequence not printed in the text (YGGEGVQ)	–	possible to visualize the activity	possible to visualize the activity	–
SEQ ID NO: 4: synthetic opioid peptide of the formula TyrGlyGly-X1-X2-X3-X4; sequence not printed in the text (YGGTTGT)	–	antinociception activity	antinociception activity	–
SEQ ID NO: 5: synthetic opioid peptide of the formula TyrGlyGly-X1-X2-X3-X4; sequence not printed in the text (YGGEGEQ)	–	antinociceptive	antinociceptive	–
YGGTAGAHGTY [SEQ ID NO: 6]	reducing	–	–	increase in the intensity of the lower mass ions over time and the decrease of the precursor ion
